Legend:
full-length HAQ STING = target: T1, full-length HAQ STING (Homo sapiens, UniProt Q86WV6, G230A/H232R/R293Q/R71H); assay: 3H-cGAMP filtration binding assay (HAQ STING); conditions: competition with tritiated cGAMP ligand; T. ni cell membranes overexpressing full-length HAQ STING
T1 construct: made in house; host or cells: Trichoplusia ni (Hi-Five) insect cells, baculovirus generated in Sf21; crude membranes

full-length WT STING = target: T2, full-length WT STING (Homo sapiens, UniProt Q86WV6, H232R); assay: 3H-cGAMP filtration binding assay (WT STING); conditions: competition with tritiated cGAMP ligand; T. ni cell membranes overexpressing full-length WT STING
T2 construct: made in house; host or cells: Trichoplusia ni insect cells, baculovirus generated in Sf21; crude membranes
T2 sequence (Q86WV6 with tags, fused parts or gaps H232R): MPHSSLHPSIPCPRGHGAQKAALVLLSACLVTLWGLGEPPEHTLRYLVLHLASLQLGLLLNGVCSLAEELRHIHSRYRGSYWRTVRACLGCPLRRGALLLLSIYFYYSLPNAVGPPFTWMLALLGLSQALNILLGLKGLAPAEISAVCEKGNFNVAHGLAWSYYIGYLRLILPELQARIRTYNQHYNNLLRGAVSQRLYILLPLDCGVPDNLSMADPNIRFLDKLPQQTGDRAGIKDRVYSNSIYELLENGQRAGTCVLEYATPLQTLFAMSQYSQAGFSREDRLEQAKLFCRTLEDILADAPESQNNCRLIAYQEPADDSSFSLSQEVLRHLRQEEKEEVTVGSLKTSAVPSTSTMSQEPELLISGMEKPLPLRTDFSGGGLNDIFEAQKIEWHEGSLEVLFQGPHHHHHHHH
Method: The ability of compounds to bind STING is quantified by their ability to compete with tritiated cGAMP ligand for human STING receptor membrane using a radioactive filter-binding assay. The binding assay employs STING receptor obtained from Trichoplusia ni cell membranes (T. ni; Expression Systems, cat #94-002F, www.expressionsystems.com) overexpressing full-length WT STING and tritiated cGAMP ligand.
The basic WT STING filtration assay protocol is as follows:
16 nM of [^3H] c-GAMP ligand was prepared by diluting into assay buffer, and 50 uL of this working stock was manually added to each well of the assay plate. After ligand addition, 2 uL of either titrated test compound, DMSO control (Sigma #276855), or cold cGAMP control was added to the appropriate wells using a BIOMEK FX. The serially titrated compound was prepared on a Hamilton STARPlus CORE in a 96-well plate (Greiner, #651201) using a 1:3 ten-point dose response format. Following compound addition, a 2.2 ug/ml working concentration of STING membrane (SEQ. ID. No. 3) was prepared by diluting concentrated membrane into assay buffer (1×PBS; Invitrogen #SH30028.02) and douncing 7× using a manual tissue homogenizer (Wheaton, #357546). 148 uL of this prepared membrane was then manually added to each well of a 96-well deep-well polypropylene plate (Fisher Scientific, #12-566-121). Compound, ligand, and membrane then incubated for 60 min at RT before the contents of each assay plate were filtered through a 96-well GF/B filter plate (PerkinElmer, #6005250) using a TOMTEC MACH III Cell Harvester equipped with 20 mM HEPES buffer (Fisher Scientific, #BP299500). The filter plates were then dried at 55° C. for 30 min using a pressurized VWR oven before 30 uL of ULTIMA GOLD F scintillate was added to each well. Tritium levels for each reaction well were then measured using a PerkinElmer TopCount plate reader.
After normalization to controls, the percent activity for each compound concentration was calculated by measuring the amount of remaining radioactivity. The plot of percent activity versus the log of compound concentration was fit with a 4-parameter dose response equation to calculate EC50 values.

[1] = tested on: IFN-β secretion from THP1 cells; assay: IFN-β secretion in THP1 cell culture (5 h); format: cell-based, human; conditions: THP1 cells, 5 h incubation, compound at 30 μM, 30 uM cGAMP = 100%; for activation at 30 µM: Homo sapiens, THP-1, 5 h, read-out: % Effect at 30 μM relative to 2′3′-cGAMP
In short: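 THP1 cells at 0.8×10^6/mL were incubated with compounds for 5 h at 37 °C, and secreted IFN-β in the supernatant was measured by AlphaLISA. Percent effect was normalised to 30 uM cGAMP (positive) and 0.3% DMSO (negative) controls. EC50 came from a 4-parameter fit.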

T1 sequence (Q86WV6 with tags, fused parts or gaps R71H/G230A/H232R/R293Q): as the sequence (Q86WV6 with tags, fused parts or gaps H232R) above, with R71H, G230A, R293Q counted along it

Row | SMILES | EC50 (full-length HAQ STING) [nM] | EC50 (full-length WT STING) [nM] | activation at 30 µM [1] [%] | % Effect at 30 μM relative to 2′3′-cGAMP [1] [%]
1 | Nc1nc2c(nnn2[C@@H]2O[C@@H]3COP(=O)(S)O[C@H]4[C@H](F)[C@H](n5ccc6c(=O)[nH]cnc65)O[C@@H]4COP(=O)(S)O[C@@H]2[C@H]3F)c(=O)[nH]1 (stereo partly drawn) [Example 48, 5-amino-3-[(5R,7R,8S,12aR,14R,15S,15aR,16S)-15,16-difluoro-2,10-dioxido-14-(4-oxo-3,4-dihydro-7H-pyrrolo[2,3-d]pyrimidin-7-yl)-2,10-disulfanyl-octahydro-12H-5,8-methanofuro[3,2-l] [1,3,6,9,11,2,10]pentaoxadiphosphacyclotetradecin-7-yl]-3,6-dihydro-7H-[1,2,3]triazolo[4,5-d]pyrimidin-7-one] | 2 | 205 | 159 | –
2 | Nc1ncnc2c1ncn2[C@@H]1O[C@@H]2CO[P@@](=O)(S)O[C@@H]3C[C@@H](CO[P@@](=O)(S)O[C@H]2[C@@H]1F)O[C@H]3n1ccc(=O)n2ccnc12 [Example 19, 8-[(2R,5S,7R,8R,10R,12aR,14R,15S,15aR)-14-(6-amino-9H-purin-9-yl)-15-fluoro-2,10-dioxido-2,10-disulfanyloctahydro-12H-5,8-methanofuro[3,2-l][11,3,6,9,11,2,10]pentaoxadiphosphacyclotetradecin-7-yl]imidazo[1,2-a]pyrimidin-5(8H)-one] | 208 | 902 | – | 7
3 | Nc1ncnc2c1ncn2[C@@H]1O[C@@H]2CO[P@@](=O)(S)O[C@@H]3[C@H](O)[C@@H](CO[P@@](=O)(S)O[C@H]2[C@H]1O)O[C@H]3n1ccc(=O)n2ccnc12 (single isomer, unassigned) [Example 1] | 77 | 1640 | 143 | –
4 | Nc1nc2c(nnn2[C@@H]2O[C@@H]3COP(=O)(S)O[C@H]4[C@H](F)[C@H](n5ccc6c(=O)[nH]cnc65)O[C@@H]4COP(=O)(S)O[C@@H]2C3)c(=O)[nH]1 (stereo partly drawn) [Example 45, 5-amino-3-[(5S,7R,8R,12aR,14R,15S, 15aR)-15-fluoro-2,10-dioxido-14-(4-oxo-3,4-dihydro-7H-pyrrolo[2,3-d]pyrimidin-7-yl)-2,10-disulfanyl-octahydro-12H-5,8-methanofuro[3,2-l][1,3,6,9,11,2,10]pentaoxadiphosphacyclotetradecin-7-yl]-3,6-dihydro-7H-[1,2,3]triazolo[4,5-d]pyrimidin-7-one] | 3 | 85 | 135 | –
5 | Nc1nc2c(ncn2[C@@H]2O[C@@H]3COP(=O)(S)O[C@H]4C[C@H](n5cc(F)c6c(=O)[nH]cnc65)O[C@@H]4COP(=O)(S)O[C@@H]2[C@@H]3F)c(=O)[nH]1 (single isomer, unassigned) [Example 53] | 167 | 253 | 85 | –
6 | Nc1nc2c(nnn2[C@@H]2S[C@@H]3COP(=O)(S)O[C@H]4[C@H](F)[C@H](n5ccc6c(=O)[nH]cnc65)O[C@@H]4COP(=O)(S)O[C@@H]2[C@@H]3F)c(=O)[nH]1 (single isomer, unassigned) [Example 50] | 4 | 9130 | – | 109
7 | Nc1ncnc2c1ncn2[C@@H]1O[C@@H]2CO[P@@](=O)(S)O[C@@H]3C[C@@H](CO[P@](=O)(S)O[C@H]2[C@@H]1F)O[C@H]3n1ccc(=O)n2ccnc12 (single isomer, unassigned) [Example 20] | 15 | 83 | 169 | –
8 | Nc1ncnc2c1ccn2[C@H]1C[C@@H]2O[P@@](=O)(S)OC[C@H]3O[C@@H](n4ccc(=O)n5ccnc45)[C@H](O[P@](=O)(S)OC[C@H]2O1)[C@@H]3O [Example 5, 8-[(2S,5R,7R,8R,10R,12aR,14R,15aS,16R)-14-(4-amino-7H-pyrrolo[2,3-d]pyrimidin-7-yl)-16-hydroxy-2,10-dioxido-2,10-disulfanyloctahydro-12H-5,8-methanofuro[3,2-l][1,3,6,9,11,2,10]pentaoxadiphosphacyclotetradecin-7-yl]imidazo [1,2-a]pyrimidin-5(8H)-one] | 563 | 10300 | 39 | –
9 | O=c1[nH]cnc2c1ncn2[C@@H]1O[C@@H]2CO[P@@](=O)(S)O[C@@H]3C[C@@H](CO[P@@](=O)(S)O[C@H]2[C@@H]1F)O[C@H]3n1ccc(=O)n2ccnc12 [Example 29, 9-[(2R,5S,7R,8R,10R,12aR,14R,15S,15aR)-15-fluoro-2,10-dioxido-7-(5-oxoimidazo[1,2-a]pyrimidin-8(5H)-yl)-2,10-disulfanyloctahydro-12H-5,8-methanofuro[3,2-l][1,3,6,9,11,2,10]pentaoxadiphosphacyclotetradecin-14-yl]-1,9-dihydro-6H-purin-6-one] | 45 | 136 | 150 | –
10 | Nc1nc2c(nnn2[C@@H]2S[C@@H]3COP(=O)(S)O[C@H]4[C@H](F)[C@H](n5ccc6c(=O)[nH]cnc65)O[C@@H]4COP(=O)(S)O[C@@H]2[C@@H]3F)c(=O)[nH]1 (single isomer, unassigned) [Example 49] | 1 | 756 | – | 163
11 | Nc1nc2c(nnn2[C@@H]2O[C@@H]3COP(=O)(S)O[C@H]4C[C@H](n5ccc6c(=O)[nH]cnc65)O[C@@H]4COP(=O)(S)O[C@@H]2C3)c(=O)[nH]1 (single isomer, unassigned) [Example 42] | 1 | 46 | – | 72
12 | Nc1nc2c(ncn2[C@@H]2O[C@@H]3CO[P@@](=O)(S)O[C@H]4C[C@H](n5ccc6c(=O)[nH]cnc65)O[C@@H]4CO[P@@](=O)(S)O[C@@H]2C3)c(=O)[nH]1 (single isomer, unassigned) [Example 38] | 1 | 393 | 109 | –
13 | Nc1ncnc2c1ncn2[C@@H]1O[C@@H]2COP(=O)(S)O[C@H]3[C@H](F)[C@H](n4ccc5c(=O)[nH]cnc54)O[C@@H]3COP(=O)(S)O[C@@H]1C2 (single isomer, unassigned) [Example 46] | 16 | 2400 | – | 166
14 | Nc1ncnc2c1ncn2[C@@H]1O[C@@H]2CO[P@@](=O)(S)O[C@@H]3[C@H](O)[C@@H](CO[P@](=O)(S)O[C@H]2[C@@H]1F)O[C@H]3n1ccc(=O)n2ccnc12 [Example 3, 8-[(2S,5R,7R,8R,10R,12aR,14R,15S,15aR, 16R)-14-(6-amino-9H-purin-9-yl)-15-fluoro-16-hydroxy-2,10-dioxido-2,10-disulfanyloctahydro-12H-5,8-methanofuro[3,2-l][1,3,6,9,11,2,10]pentaoxadiphosphacyclotetradecin-7-yl]imidazo [1,2-a]pyrimidin-5(8H)-one] | 140 | 1860 | 20 | –
15 | Nc1ncnc2c1nnn2[C@@H]1O[C@@H]2COP(=O)(S)O[C@@H]3[C@H](O)[C@@H](COP(=O)(S)O[C@H]2[C@@H]1F)O[C@H]3n1ccc(=O)n2ccnc12 (stereo partly drawn) [Example 4] | 59 | 1760 | 139 | –

Source: patent US11685761B2, “Cyclic di-nucleotide compounds as sting agonists” (Merck Sharp & Dohme Corp., priority 2017, dated 2023)
